Source: patent publication US8546442B2, “Pyrazolopiperidine compounds as CCR1 receptor antagonists” (Boehringer Ingelheim International GmbH, priority 2010, dated 2013)
pIC50: −log10 of the molar value.

Tests used:
CCR1 [1] = target: T1, CCR1 (Homo sapiens, UniProt P32246); test: calcium flux in CCR1 transfected cells, Method A (Fluo-4 NW, FLIPR TETRA); format: cell-based; conditions: cells stably expressing recombinant CCR1 and G-alpha-16, MIP-1 alpha at EC80
T1 sequence (P32246 1-355): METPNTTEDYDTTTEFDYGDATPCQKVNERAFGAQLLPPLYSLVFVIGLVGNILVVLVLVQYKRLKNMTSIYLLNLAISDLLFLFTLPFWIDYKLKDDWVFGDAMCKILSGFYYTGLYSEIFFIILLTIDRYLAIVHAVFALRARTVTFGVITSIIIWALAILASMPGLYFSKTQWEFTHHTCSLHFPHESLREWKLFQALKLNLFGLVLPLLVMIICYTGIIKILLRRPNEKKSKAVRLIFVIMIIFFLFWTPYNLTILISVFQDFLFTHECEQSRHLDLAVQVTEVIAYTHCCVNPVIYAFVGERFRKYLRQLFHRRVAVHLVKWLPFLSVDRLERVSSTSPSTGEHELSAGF
Procedure: (§1) Compounds are assessed for the ability to block the interaction of CCR1 and MIP-1α in a functional cellular assay measuring calcium flux in CCR1 transfected cells.
Method A: Non-adherent cells purchased from Chemicon Corporation (HTS005C), stably expressing recombinant CCR1 and G-alpha-16 are grown in RPMI 1640 medium (Mediatech 10-080-CM) supplemented with 10% heat-inactivated FBS, 0.4 mg/mL Geneticin and penicillin/streptomycin. On the day of the assay, the cells are transferred to a beaker and dye-loaded in bulk using a Fluo-4 NW Calcium Assay Kit with probenecid (Invitrogen F36205) at 0.8E6 cells/mL for 1 hour at room temperature. After 1 hour, they are seeded in a 384-well tissue culture-treated plate at a density of 20,000 cells/well. Appropriately diluted test compound is added to the well to achieve a top concentration of 3,000 nM (diluted 4-fold with 10 doses total). The final concentration of DMSO is 1%. The buffer is HBSS (Invitrogen 14025) with 20 mM HEPES at pH 7.4. The cells are allowed to incubate 1 hour in the dark at room temperature. The plates are transferred to the FLIPR TETRA where MIP-1 alpha in 1% BSA is added at the EC80 final concentration. Wells+/−MIP-1 alpha containing diluted DMSO instead of compound serve as the controls. Intracellular calcium flux is recorded on the FLIPR TETRA, using excitation at 470/495 nm and emission at 515/575 nm. Data are analyzed using Activity Base software.

CCR1 [2] = target: T1, CCR1; test: calcium flux in CCR1 transfected cells, Method B (Calcium 4 dye, HAMAMATSU FDSS6000); format: cell-based; conditions: cells stably expressing recombinant CCR1 and G-alpha-16, MIP-1alpha at EC80
Procedure: as §1
Method B: Non-adherent cells purchased from Chemicon Corporation (HTS005C), stably expressing recombinant CCR1 and G-alpha-16 are grown in RPMI 1640 medium (Mediatech 10-080-CM) supplemented with 10% FBS, 0.4 mg/mL Geneticin and penicillin/streptomycin. On the day of the assay, the cells are loaded with Calcium 4 dye (Molecular Devices R7448) with Probenecid (Invitrogen P346400) at 8E5 cells/mL for 1 hour at room temperature. After 1 hour, they are seeded in a 384-well tissue culture-treated plate at a density of 20,000 cells/well. Appropriately diluted test compound is added to the well to achieve a top concentration of 3,000 nM (diluted 4-fold with 10 doses total). The final concentration of DMSO is 1%. The buffer is HBSS (Invitrogen 14025) with 20 mM HEPES at pH 7.4. The cells incubate 30 minutes at 37 C and then 30 minutes at room temperature. The plates are transferred to the HAMAMATSU FDSS6000 where MIP-1alpha in 1% BSA is added at the EC80 final concentration. All plates must be read within 4 hours of the start of dye-loading. Wells+/−MIP-1alpha containing diluted DMSO instead of compound serve as the controls. Data are analyzed using Activity Base software.

pIC50 (CCR1 [1]): 7.85
pIC50 (CCR1 [2]): 7.85
Structure (SMILES): CCC[C@H](NC(=O)N1CCCc2c1cnn2-c1c(F)cc(F)cc1F)c1ccnc(S(C)(=O)=O)c1 [Example 63]
